Key:
[1] = tested on: black nightshade (Solanum nigrum L.); experiment: Test Example 23: pot, soil treatment, metobromuron + fluazifop-P-butyl; type: in vivo; conditions: Solanum nigrum, soil, read-out: Growth inhibition rate of black nightshade (%) Measured value
Description: (§1) When the herbicidal activity in a case where two active ingredients are combined, is larger than the simple sum of the respective herbicidal activities of the two active ingredients (the expected activity), it is called a synergistic effect. The activity expected by the combination of two active ingredients can be calculated as follows (Colby S. R., “Weed”, vol. 15, p. 20-22, 1967). E=α+β−(α×β[…]) where α: growth inhibition rate when treated with x (g/ha) of herbicide X, • β: growth inhibition rate when treated with y (g/ha) of herbicide Y, • E: growth inhibition rate expected when treated with x (g/ha) of herbicide X and y (g/ha) of herbicide Y.
(§2) On the 19th day after treatment, the state of growth of barnyardgrass was visually observed and evaluated in accordance with the following standards. The growth inhibition rate (%) [measured value] and the growth inhibition rate (%) [calculated value] calculated by the Colby's method, are shown in Table 2.
Growth inhibition rate (%)=inhibition rate) (%) of 0 (equivalent to the non-treated area) to 100 (complete kill)
Soil was put into a 1/300,000 ha pot, and seeds of black nightshade (Solanum nigrum L.) were sown. […]
On the 20th day after treatment, the state of growth of black nightshade was visually observed and evaluated in the same manner as in Test Example 1.

[2] = tested on: barnyardgrass (Echinochloa crus-qalli L.); experiment: Test Example 4: soybean field, soil treatment, metobromuron + trifluralin; type: in vivo; conditions: soil, read-out: Growth inhibition rate of barnyardgrass (%) Measured value
Description: as §1, §2
Growth inhibition rate (%)=inhibition rate) (%) of 0 (equivalent to the non-treated area) to 100 (complete kill) […]
On the 50th day after treatment, the state of growth of barnyardgrass (Echinochloa crus-qalli L.) which occurred naturally, was visually observed and evaluated in the same manner as in Test Example 1.

What does the source list for `CON(C)C(=O)Nc1ccc(Br)cc1` [Metobromuron, 3-(4-bromophenyl)-1-methoxy-1-methylurea]?
inhibition at 750 g/ha [1]: 85%; inhibition at 1000 g/ha [2]: 30%
